Results: PubChem BioAssay AID330 (DTP/NCI, 2004)
Several values for one entry are separate records, joined by “and”; a condition that tells them apart may be missing. Identical values can stand only once. Inconclusive results and toxic doses are left out.

Tested on: P388 leukemia ip, CD2F1 mice, survival T/C
Assay: NCI In Vivo Anticancer Drug Screen. Data for tumor model P388 Leukemia (intraperitoneal) in CD2F1 (CDF1) mice
Conditions: endpoint: median survival time, higher = longer survival
Procedure, shortened: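 Mice carrying the transplanted tumor received test compound or vehicle. Survival was recorded in each group, and the value is the treated-group measurement divided by that of the vehicle-treated control group.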

Structure (SMILES): CC[C@H]1C[C@H]2CN(CCc3c([nH]c4ccccc34)[C@@](C(=O)OC)(c3cc4c(cc3OC)N(C=O)[C@H]3[C@@](O)(C(=O)OC)[C@H](OC(C)=O)[C@]5(CC)C=CCN6CC[C@]43[C@@H]65)C2)C1
- T/C (dose: 0.5 mg/kg/injection, schedule: Q01DX001 (ip), vehicle: water): 155 % of control
- T/C (dose: 1.0 mg/kg/injection, schedule: Q01DX001 (ip), vehicle: water): 156 % of control and 174 % of control
- T/C (dose: 2.0 mg/kg/injection, schedule: Q01DX001 (ip), vehicle: water): 180 % of control
- T/C (dose: 4.0 mg/kg/injection, schedule: Q01DX001 (ip), vehicle: water): 90 % of control

Structure (SMILES): CCCCn1c(Cl)c(/C=N\Nc2ccc([N+](=O)[O-])cc2)c2ccccc21
- T/C (dose: 25.0 mg/kg/injection, schedule: Q01DX001 (ip), vehicle: saline with Tween-80): 86 % of control
- T/C (dose: 100.0 mg/kg/injection, schedule: Q01DX001 (ip), vehicle: saline with Tween-80): 103 % of control and 94 % of control

Structure (SMILES): Nc1nc2nc(N=Nc3ccc(S(=O)(=O)O)cc3)[nH]c2c(=O)[nH]1
- T/C (dose: 50.0 mg/kg/injection, schedule: Q01DX005 (ip), vehicle: Klucel (hydroxypropylcellulose) (HPC)): 104 % of control
- T/C (dose: 100.0 mg/kg/injection, schedule: Q01DX005 (ip), vehicle: Klucel (hydroxypropylcellulose) (HPC)): 104 % of control
- T/C (dose: 200.0 mg/kg/injection, schedule: Q01DX005 (ip), vehicle: Klucel (hydroxypropylcellulose) (HPC)): 104 % of control

Structure (SMILES): CC1CCCCN1C (stereo unspecified)
- T/C (dose: 25.0 mg/kg/injection, schedule: Q01DX005 (ip), vehicle: saline with Tween-80): 90 % of control
- T/C (dose: 50.0 mg/kg/injection, schedule: Q01DX005 (ip), vehicle: saline with Tween-80): 91 % of control
- T/C (dose: 100.0 mg/kg/injection, schedule: Q01DX005 (ip), vehicle: saline with Tween-80): 89 % of control

Structure (SMILES): CCCCCC(CN(C)C)C(=O)/C=C/c1ccccc1 (stereo unspecified)
- T/C (dose: 12.5 mg/kg/injection, schedule: Q01DX009 (ip), vehicle: saline): 102 % of control
- T/C (dose: 25.0 mg/kg/injection, schedule: Q01DX009 (ip), vehicle: saline): 94 % of control
- T/C (dose: 50.0 mg/kg/injection, schedule: Q01DX009 (ip), vehicle: saline): 104 % of control
- T/C (dose: 100.0 mg/kg/injection, schedule: Q01DX009 (ip), vehicle: saline): 105 % of control

Structure (SMILES): CCC(=O)/C(=C\c1ccccc1Cl)C(C)=O
- T/C (dose: 100.0 mg/kg/injection, schedule: Q04DX003 (ip), vehicle: saline with Tween-80): 105 % of control
- T/C (dose: 200.0 mg/kg/injection, schedule: Q04DX003 (ip), vehicle: saline with Tween-80): 110 % of control
- T/C (dose: 400.0 mg/kg/injection, schedule: Q04DX003 (ip), vehicle: saline with Tween-80): 95 % of control

Structure (SMILES): O=C(c1ccccc1Cl)n1c(=O)oc2ccccc21
- T/C (dose: 50.0 mg/kg/injection, schedule: Q04DX002 (ip), vehicle: Klucel (hydroxypropylcellulose) (HPC)): 99 % of control
- T/C (dose: 100.0 mg/kg/injection, schedule: Q04DX002 (ip), vehicle: Klucel (hydroxypropylcellulose) (HPC)): 90 % of control
- T/C (dose: 200.0 mg/kg/injection, schedule: Q04DX002 (ip), vehicle: Klucel (hydroxypropylcellulose) (HPC)): 90 % of control

Structure (SMILES): CCN(CC)CCCC(C)Nc1nc(-c2ccccc2)nc2ccccc12 (stereo unspecified)
- T/C (dose: 50.0 mg/kg/injection, schedule: Q01DX005 (ip), vehicle: saline): 99 % of control
- T/C (dose: 100.0 mg/kg/injection, schedule: Q01DX005 (ip), vehicle: saline): 101 % of control
- T/C (dose: 200.0 mg/kg/injection, schedule: Q01DX005 (ip), vehicle: saline): 110 % of control

Structure (SMILES): c1ccc(Cc2ccccn2)nc1
- T/C (dose: 100.0 mg/kg/injection, schedule: Q01DX009 (ip), vehicle: saline with Tween-80): 104 % of control
- T/C (dose: 200.0 mg/kg/injection, schedule: Q01DX009 (ip), vehicle: saline with Tween-80): 104 % of control
- T/C (dose: 400.0 mg/kg/injection, schedule: Q01DX009 (ip), vehicle: saline with Tween-80): 95 % of control

Structure (SMILES): NC(=S)c1cccc(/C=N/Nc2ccccc2)n1
- T/C (dose: 100.0 mg/kg/injection, schedule: Q04DX003 (ip), vehicle: Klucel (hydroxypropylcellulose) (HPC)): 101 % of control
- T/C (dose: 200.0 mg/kg/injection, schedule: Q04DX003 (ip), vehicle: Klucel (hydroxypropylcellulose) (HPC)): 99 % of control
- T/C (dose: 400.0 mg/kg/injection, schedule: Q04DX003 (ip), vehicle: Klucel (hydroxypropylcellulose) (HPC)): 97 % of control
